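Dose response: 5 concentrations. Exposure: 48 h. Format: 96-well plates. Endpoint: linear interpolation; highest concentration if not reached. TGI: total growth inhibition.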 *1 amine or outer side, *2 acyl side, *3 side chain or, on linkers, in order; H or OH if unused. Where a SMILES comes first, the peptide text is derived from it. Bridges are numbered along the chain shown (N, C = ends). Roman numbers before positions name the chains, in order. [ ]: non-standard residue; d: D form. Actinocin(9to1) = Cc1c2oc3c(C)ccc(C(=O)[*:1])c3nc-2c(C(=O)[*:2])c(N)c1=O; Hyp = O=C(O)[CH]1C[CH](O)CN1; NMeV = CN[CH](C(=O)O)C(C)C; Sar = CNCC(=O)O
Columns and labels:
Assay in all cases: inhibition of tumour cell growth, NCI panel, 48 h
[1] = system: HT29 colon
[2] = system: NCI/ADR-RES ovarian
[3] = system: LOX IMVI melanoma
[4] = system: A498 renal
[5] = system: COLO 205 colon
[6] = system: HOP-92 NSCLC
[7] = system: MOLT-4 leukemia
[8] = system: RPMI-8226 leukemia
[9] = system: HS 578T breast
[10] = system: MDA-MB-435

Structure (SMILES) | TGI [1] [µM] | TGI [2] [µM] | TGI [3] [µM] | TGI [4] [µM] | TGI [5] [µM] | TGI [6] [µM] | TGI [7] [µM] | TGI [8] [µM] | TGI [9] [µM] | TGI [10] [µM]
O=C(O)c1c2c(cc3c1CC1(Cc4cc5c(cc4C1=O)CCC5)C3)CCC2 (stereo not given) | > 100 | > 100 | > 100 | > 100 | > 100 | > 100 | > 100 | > 100 | > 100 | > 100
Cc1c(C)c(C)c(-n2c(=O)n(C)c(=O)n2-c2cc(C(C)(C)C)cc(C(C)(C)C)c2O)c(C)c1C | 15.9 | 23.4 | 26.8 | 26.3 | 20 | 17.6 | 19.3 | 29 | 31.9 | 27.2
O[C@@H]1CCC[C@@H]2NC[C@@H](c3ccc4c(c3)OCO4)[C@H]12 | > 100 | > 100 | > 100 | > 100 | > 100 | > 100 | > 100 | > 100 | > 100 | > 100
COc1ccc(NC(C(N)=O)c2cc3cc(Br)ccc3nc2Cl)cc1 (stereo not given) | > 100 | > 100 | > 100 | > 100 | > 100 | 99.7 | 62.9 | > 100 | > 100 | 56.5
COc1cccc2cc(C(=O)Nc3ccccc3)c(=N)oc12 | > 100 | > 100 | > 100 | > 100 | > 100 | > 100 | > 100 | > 100 | > 84.7 | > 100
N/C(=N\Nc1ccc(Cl)cc1)c1cnccn1 | > 100 | > 100 | > 100 | > 100 | 40.1 | > 100 | > 100 | > 100 | > 100 | > 100
O=[N+]([O-])c1cc(F)ccc1S(=O)(=O)c1ccccc1 | > 10 | > 10 | > 10 | > 10 | > 10 | > 10 | > 10 | > 10 | > 10 | > 10
CC(C)(C)NC(=O)/C(=C\Sc1ccccc1)c1ccccc1 | > 100 | > 100 | > 79.4 | > 100 | > 100 | > 42.4 | > 100 | > 100 | > 100 | > 100
Cc1nc2c(cc1OCc1ccccc1)C(=O)C1=C(C2=O)C2OC(=O)CC2OC1(C)C (stereo not given) | 1.41 | 28.9 | 0.475 | 3.02 | 1.15 | 1.42 | 87.9 | > 100 | 0.583 | 1.8
Cc1c2oc3c(C)ccc(C(=O)NC4C(=O)NC(C(C)C)C(=O)N5CC(O)CC5C(=O)N(C)CC(=O)N(C)C(C(C)C)C(=O)OC4C)c3nc-2c(C(=O)NC2C(=O)NC(C(C)C)C(=O)N3CC(O)CC3C(=O)N(C)CC(=O)N(C)C(C(C)C)C(=O)OC2C)c(N)c1=O (stereo not given) (I: TV[Hyp][Sar][NMeV] / II: TV[Hyp][Sar][NMeV]; ester I:1-I:C, II:1-II:C; linker I:N-II:N via Actinocin(9to1); configuration not given here) | > 1 | > 1 | > 1 | > 1 | > 1 | > 1 | > 1 | > 1 | > 1 | > 1
O=c1c2cnccc2cc2c3ccccc3ccn12 | > 100 | > 100 | > 100 | > 100 | > 100 | > 100 | 91.8 | > 100 | > 100 | > 100
COc1c(Br)cc2ccccc2c1-c1c(OC)c(Br)cc2ccccc12 | > 100 | > 100 | > 100 | > 100 | > 100 | > 100 | > 100 | > 100 | > 100 | > 100
O=[N+]([O-])/C=C(\CS(=O)(=O)c1ccccc1)c1ccc2c(c1)OCO2 | > 100 | 49.2 | > 100 | 81.2 | > 100 | > 100 | > 100 | > 100 | > 100 | 76.6
CC(=O)C(C(C)=O)[C@@H]1OC(C)(C)O[C@@H]1[C@H]1COC(C)(C)O1 | > 100 | > 100 | > 100 | > 100 | > 100 | > 100 | > 100 | > 100 | > 100 | > 100

Source: PubChem BioAssay (NCI)
